Measured values as given in PubChem BioAssay (NCI).
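1) Cells in 96-well plates. 2) Compound, 48 h, 5 concentrations. 3) Linear interpolation between surrounding doses. 4) Unreached endpoint = highest concentration. Here, GI50 denotes the concentration required for 50% inhibition of growth. TGI marks complete inhibition of growth.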

How the values were obtained:
Experiment in all cases: NCI tumour cell line growth inhibition, 48 h
ACHN renal = test system: ACHN renal
SNB-75 CNS = test system: SNB-75 CNS
OVCAR-8 ovarian = test system: OVCAR-8 ovarian
HL-60(TB) leukemia = test system: HL-60(TB) leukemia
COLO 205 colon = test system: COLO 205 colon
HOP-62 NSCLC = test system: HOP-62 NSCLC
SF-295 CNS = test system: SF-295 CNS
DU-145 prostate = test system: DU-145 prostate
SF-268 CNS = test system: SF-268 CNS
MDA-MB-231 breast = test system: MDA-MB-231 breast
TK-10 renal = test system: TK-10 renal
RXF 393 renal = test system: RXF 393 renal
UACC-62 melanoma = test system: UACC-62 melanoma
UACC-257 melanoma = test system: UACC-257 melanoma
MOLT-4 leukemia = test system: MOLT-4 leukemia
BT-549 breast = test system: BT-549 breast
MDA-N = test system: MDA-N
IGROV1 ovarian = test system: IGROV1 ovarian
EKVX NSCLC = test system: EKVX NSCLC
SK-OV-3 ovarian = test system: SK-OV-3 ovarian
HT29 colon = test system: HT29 colon
M14 melanoma = test system: M14 melanoma
SW-620 colon = test system: SW-620 colon
HS 578T breast = test system: HS 578T breast
U251 CNS = test system: U251 CNS
MCF7 breast = test system: MCF7 breast
MDA-MB-435 = test system: MDA-MB-435
HCT-15 colon = test system: HCT-15 colon
HOP-92 NSCLC = test system: HOP-92 NSCLC
SK-MEL-28 melanoma = test system: SK-MEL-28 melanoma
KM12 colon = test system: KM12 colon
SR leukemia = test system: SR leukemia
PC-3 prostate = test system: PC-3 prostate
T-47D breast = test system: T-47D breast
SF-539 CNS = test system: SF-539 CNS
CAKI-1 renal = test system: CAKI-1 renal
HCT-116 colon = test system: HCT-116 colon
SK-MEL-2 melanoma = test system: SK-MEL-2 melanoma
NCI-H23 lung = test system: NCI-H23 lung
LOX IMVI melanoma = test system: LOX IMVI melanoma
HCC-2998 colon = test system: HCC-2998 colon
NCI-H226 lung = test system: NCI-H226 lung
SN12C renal = test system: SN12C renal
NCI-H460 lung = test system: NCI-H460 lung
SNB-19 CNS = test system: SNB-19 CNS
786-0 renal = test system: 786-0 renal
K-562 leukemia = test system: K-562 leukemia
UO-31 renal = test system: UO-31 renal
OVCAR-3 ovarian = test system: OVCAR-3 ovarian
NCI/ADR-RES ovarian = test system: NCI/ADR-RES ovarian
SK-MEL-5 melanoma = test system: SK-MEL-5 melanoma
RPMI-8226 leukemia = test system: RPMI-8226 leukemia
A549 NSCLC = test system: A549 NSCLC
CCRF-CEM leukemia = test system: CCRF-CEM leukemia
NCI-H522 lung = test system: NCI-H522 lung
OVCAR-5 ovarian = test system: OVCAR-5 ovarian
A498 renal = test system: A498 renal
MALME-3M melanoma = test system: MALME-3M melanoma
OVCAR-4 ovarian = test system: OVCAR-4 ovarian

Cc1cc(-c2nc3cccc(O)c3s2)ccc1N
TGI (ACHN renal): 49.9 µM | TGI (SNB-75 CNS): > 100 µM | TGI (OVCAR-8 ovarian): 99 µM | TGI (HL-60(TB) leukemia): 47.2 µM | TGI (COLO 205 colon): 58.1 µM | TGI (HOP-62 NSCLC): > 100 µM | TGI (SF-295 CNS): > 100 µM | TGI (DU-145 prostate): > 100 µM | TGI (SF-268 CNS): > 100 µM | TGI (MDA-MB-231 breast): > 100 µM | TGI (TK-10 renal): > 100 µM | TGI (RXF 393 renal): > 100 µM | TGI (UACC-62 melanoma): 33.1 µM | TGI (UACC-257 melanoma): > 100 µM | TGI (MOLT-4 leukemia): 78.4 µM | TGI (BT-549 breast): 54.7 µM | TGI (MDA-N): > 100 µM | TGI (IGROV1 ovarian): > 100 µM | TGI (EKVX NSCLC): > 100 µM | TGI (SK-OV-3 ovarian): > 100 µM | TGI (HT29 colon): > 100 µM | TGI (M14 melanoma): 37.7 µM | TGI (SW-620 colon): > 100 µM | TGI (HS 578T breast): 46.4 µM | TGI (U251 CNS): > 100 µM | TGI (MCF7 breast): 34.1 µM | TGI (MDA-MB-435): 41.9 µM | TGI (HCT-15 colon): > 100 µM | TGI (HOP-92 NSCLC): > 100 µM | TGI (SK-MEL-28 melanoma): > 100 µM | TGI (KM12 colon): 36.7 µM | TGI (SR leukemia): > 100 µM | TGI (PC-3 prostate): 98.5 µM | TGI (T-47D breast): > 100 µM | TGI (SF-539 CNS): > 100 µM | TGI (CAKI-1 renal): 71.4 µM | TGI (HCT-116 colon): > 100 µM | TGI (SK-MEL-2 melanoma): > 100 µM | TGI (NCI-H23 lung): 93 µM | TGI (LOX IMVI melanoma): > 100 µM | TGI (HCC-2998 colon): > 100 µM | TGI (NCI-H226 lung): > 100 µM | TGI (SN12C renal): > 100 µM | TGI (NCI-H460 lung): > 100 µM | TGI (SNB-19 CNS): 7.43 µM | TGI (786-0 renal): > 100 µM | TGI (K-562 leukemia): > 100 µM | TGI (UO-31 renal): 25.4 µM | TGI (OVCAR-3 ovarian): > 100 µM | TGI (NCI/ADR-RES ovarian): 55.9 µM | TGI (SK-MEL-5 melanoma): 48.8 µM | TGI (RPMI-8226 leukemia): > 100 µM | TGI (A549 NSCLC): 41.4 µM | TGI (CCRF-CEM leukemia): 65.2 µM

S=C1Cc2c(-c3ccc(Br)cc3)cc(-c3ccccc3)nc2-c2ccccc2N1
GI50 (ACHN renal): 0.867 µM | TGI (ACHN renal): 2.35 µM | TGI (SNB-75 CNS): 3.35 µM | TGI (OVCAR-8 ovarian): 3.02 µM | TGI (HL-60(TB) leukemia): > 100 µM | TGI (COLO 205 colon): 21.4 µM | TGI (HOP-62 NSCLC): 3.01 µM | TGI (SF-295 CNS): 5.4 µM | TGI (NCI-H522 lung): 8.04 µM | TGI (DU-145 prostate): 10.3 µM | TGI (SF-268 CNS): 6.19 µM | TGI (MDA-MB-231 breast): 3.72 µM | GI50 (TK-10 renal): 1.79 µM | TGI (TK-10 renal): 3.75 µM | TGI (RXF 393 renal): 6.01 µM | TGI (UACC-62 melanoma): 5.45 µM | TGI (UACC-257 melanoma): 9.74 µM | TGI (MOLT-4 leukemia): 72 µM | TGI (BT-549 breast): 18 µM | TGI (MDA-N): 9.03 µM | TGI (IGROV1 ovarian): 2.94 µM | TGI (EKVX NSCLC): 4.67 µM | TGI (SK-OV-3 ovarian): 3.27 µM | TGI (HT29 colon): 5.81 µM | TGI (OVCAR-5 ovarian): 14.4 µM | TGI (M14 melanoma): 11.8 µM | TGI (SW-620 colon): 9.15 µM | TGI (HS 578T breast): 3.84 µM | TGI (U251 CNS): 2.58 µM | TGI (MCF7 breast): > 100 µM | TGI (MDA-MB-435): 20.6 µM | TGI (HCT-15 colon): 14.6 µM | TGI (HOP-92 NSCLC): 4.41 µM | TGI (SK-MEL-28 melanoma): 27.3 µM | TGI (KM12 colon): > 42 µM | TGI (A498 renal): 3.71 µM | TGI (PC-3 prostate): 23.3 µM | TGI (T-47D breast): 7.03 µM | TGI (SF-539 CNS): 12.2 µM | TGI (CAKI-1 renal): 3.65 µM | TGI (HCT-116 colon): 5.38 µM | TGI (SK-MEL-2 melanoma): 20 µM | TGI (NCI-H23 lung): 12.6 µM | TGI (LOX IMVI melanoma): 12.6 µM | TGI (HCC-2998 colon): 11.3 µM | TGI (MALME-3M melanoma): 7.41 µM | TGI (NCI-H226 lung): 8.54 µM | TGI (SN12C renal): 2.97 µM | TGI (NCI-H460 lung): 2.66 µM | TGI (SNB-19 CNS): 3.52 µM | GI50 (786-0 renal): 0.632 µM | TGI (786-0 renal): 1.79 µM | TGI (K-562 leukemia): > 100 µM | TGI (UO-31 renal): 4.77 µM | TGI (OVCAR-3 ovarian): 6.93 µM | TGI (NCI/ADR-RES ovarian): 4.43 µM | TGI (OVCAR-4 ovarian): 1.43 µM | TGI (SK-MEL-5 melanoma): 23.5 µM | TGI (RPMI-8226 leukemia): 65.8 µM | TGI (A549 NSCLC): 8.23 µM | TGI (CCRF-CEM leukemia): 11.2 µM
